Results as given in patent publication US11771702B2, “Agonists of PPAR-δ” (priority 2018, dated 2023).
Where two headings read alike, the source gives them in different places.

Key:
[1] = molecular target: T1, PPAR-δ (Homo sapiens, UniProt Q03181); conditions: ligand of the PDB complex, published EC50; cited from earlier work
T1 sequence (Q03181 1-441): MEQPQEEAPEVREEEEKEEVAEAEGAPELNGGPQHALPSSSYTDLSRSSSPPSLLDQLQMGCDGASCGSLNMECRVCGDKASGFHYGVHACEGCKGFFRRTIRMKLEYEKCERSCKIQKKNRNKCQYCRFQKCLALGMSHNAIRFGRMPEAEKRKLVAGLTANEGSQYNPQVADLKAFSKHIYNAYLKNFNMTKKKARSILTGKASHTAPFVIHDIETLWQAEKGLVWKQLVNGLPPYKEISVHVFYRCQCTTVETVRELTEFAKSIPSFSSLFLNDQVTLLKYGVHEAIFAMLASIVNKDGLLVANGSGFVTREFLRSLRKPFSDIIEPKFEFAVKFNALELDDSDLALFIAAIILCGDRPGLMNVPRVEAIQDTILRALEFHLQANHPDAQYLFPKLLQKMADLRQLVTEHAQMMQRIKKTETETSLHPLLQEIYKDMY

[2] = molecular target: T2, PPAR-δ (Homo sapiens, UniProt Q03181); experiment: GAL4-DBD/PPAR-LBD luciferase reporter agonist assay in HEK293T cells, PPAR-δ; assay type: cell-based; conditions: for PPAR subtype selectivity: PPAR-δ vs PPAR-α and PPAR-γ
T2 construct: hPPARδ/LBD encoding amino acids 147-441; expressed in transfected cells; host or cells: HEK293T
T2 sequence (Q03181 147-441): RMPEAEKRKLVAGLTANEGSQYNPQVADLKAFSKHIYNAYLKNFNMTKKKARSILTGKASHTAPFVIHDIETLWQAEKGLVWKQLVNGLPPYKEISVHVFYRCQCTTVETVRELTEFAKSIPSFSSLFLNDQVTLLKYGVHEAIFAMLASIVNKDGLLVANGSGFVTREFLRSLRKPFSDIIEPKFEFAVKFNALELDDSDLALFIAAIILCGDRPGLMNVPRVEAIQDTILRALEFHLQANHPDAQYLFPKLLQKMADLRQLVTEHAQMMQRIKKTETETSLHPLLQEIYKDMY
Protocol: (§1) Measuring molecular agonist activities—a GAL4-DNA Binding Domain (GAL4-DBD) fusion protein was constructed for each PPAR family member. To assess compound activity, each construct was co-transfected into HEK293T cells (American Type Culture Collection; Manassas, Va.) along with the reporter construct, pGL5 (Promega) using Fugene 6 (Promega) as a transfection reagent and the manufacturer's protocol. An eleven-point dilution series of each compound was added to the cells and incubated overnight. Luciferase levels were then determined following the addition of Bright-Glo (Promega) using the manufacturer's recommendations.

[3] = molecular target: T3, PPAR-α (Homo sapiens, UniProt Q07869); experiment: GAL4-DBD/PPAR-LBD luciferase reporter agonist assay in HEK293T cells, PPAR-α; assay type: cell-based
T3 construct: hPPARα/LBD encoding amino acids 175-468; expressed in transfected cells; host or cells: HEK293T
T3 sequence (Q07869 175-468): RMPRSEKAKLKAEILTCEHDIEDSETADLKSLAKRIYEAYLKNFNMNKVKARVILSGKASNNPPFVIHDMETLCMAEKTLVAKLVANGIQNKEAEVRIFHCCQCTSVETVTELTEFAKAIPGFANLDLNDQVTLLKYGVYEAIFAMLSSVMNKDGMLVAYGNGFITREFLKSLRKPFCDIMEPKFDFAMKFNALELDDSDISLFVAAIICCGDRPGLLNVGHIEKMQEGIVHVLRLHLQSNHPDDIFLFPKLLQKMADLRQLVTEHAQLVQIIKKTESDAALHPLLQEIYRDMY
Protocol: as §1

[4] = molecular target: T4, PPAR-γ (Homo sapiens, UniProt P37231); experiment: GAL4-DBD/PPAR-LBD luciferase reporter agonist assay in HEK293T cells, PPAR-γ; assay type: cell-based
T4 construct: hPPARγ/LBD encoding amino acids 184-477; expressed in transfected cells; host or cells: HEK293T
T4 sequence (P37231 184-477 isoform P37231-2): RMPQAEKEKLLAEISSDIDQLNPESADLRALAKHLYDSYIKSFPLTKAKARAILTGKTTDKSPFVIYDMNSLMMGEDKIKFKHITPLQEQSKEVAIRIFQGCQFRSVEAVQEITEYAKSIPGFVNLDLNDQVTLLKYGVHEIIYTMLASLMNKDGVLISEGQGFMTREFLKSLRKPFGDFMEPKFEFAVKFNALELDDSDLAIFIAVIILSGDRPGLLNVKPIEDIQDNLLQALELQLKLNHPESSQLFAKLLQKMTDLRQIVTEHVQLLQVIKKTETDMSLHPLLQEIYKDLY
Protocol: as §1

[5] = Table 10 (PPAR-δ), read-out: PPAR-δ EC50

| Compound | EC50 ([2]; Table 10) [µM] | EC50 ([3]; Table 10) [µM] | EC50 ([2]; Table 9) [µM] | other results |
| --- | --- | --- | --- | --- |
| CC/C=C\C/C=C\C/C=C\C/C=C\C/C=C\CCCC(=O)O [3GXW] | – | – | – | EC50 [1]: 4 µM |
| Cc1ccc(C(=O)Nc2cccc(CNCc3ccc(OC(F)(F)F)cc3)c2)cc1 [GNF-0341] | – | – | 0.011 | PPAR subtype selectivity [2]: agonists of PPAR-δ and PPAR-γ only; EC50 ([4]; Table 9, read-out: PPAR-γ EC50): 1.26 µM |
| O=C(O)Cc1csc(SCc2cc(F)cc3c2OC(c2ccccc2)OC3)n1 (stereo not shown) [GNF-1051] | 7.76 | 7.33 | – | – |
| O=C(Nc1ccccc1O)C1CCN(C(=O)COc2ccc(F)cc2)CC1 [GNF-5891] | – | – | 0.017 | EC50 ([4]; Table 9, read-out: PPAR-γ EC50): > 10 µM |
| O=C(Nc1cccc(CNCC(c2cccs2)N2CCOCC2)c1)c1ccc(Cl)cc1 (stereo not shown) [GNF-6029] | – | – | 0.012 | – |
| O=C(NCCCCOc1ccc(F)cc1)c1ccc([N+](=O)[O-])c(O)c1 [GNF-7176] | 7.24 | – | – | – |
| COc1ccc(N2CCN(C(=O)CSc3nnc(COc4ccc(Cl)cc4C)[nH]3)CC2)cc1 [GNF-7486] | – | – | 0.018 | – |
| CC(C(=O)Nc1ccc(SC(F)F)cc1)N1CC=C(c2ccc(O)cc2)CC1 (stereo not shown) [GNF-8208] | 7.86 | – | – | – |
| O=C(CN1CCN(c2ccc(O)cc2)CC1)NCC1(N2CCOCC2)CCCCC1 [GNF-8501] | – | – | 0.006 | – |
| Cc1cc(C(=O)COc2ccc(C(=O)O)cc2)c(C)n1CCC1=CCCCC1 [GNF-9057] | 7.49 | 4.63 | – | EC50 [4, 5]: 8.6 µM |
| O=C(Nc1ccccc1O)C1CCN(C(=O)c2ccc(OCC3CCCO3)cc2)CC1 (stereo not shown) [GNF-9448] | – | – | 0.883 | EC50 ([3]; Table 9): 7.06 µM; EC50 ([4]; Table 9, read-out: PPAR-γ EC50): 0.937 µM |
| O=[N+]([O-])c1cc(S(=O)(=O)N2CCCC2)ccc1OCC(O)CNCc1ccc(F)cc1 (stereo not shown) [GNF-9594] | 4.6 | – | – | – |
| Cc1ccc(-c2nc(SCCCC(=O)N3CCOCC3)[nH]c2-c2ccc(C)cc2)cc1 [GNF-9820] | – | – | 0.012 | – |
| Cc1cc(C(=O)COC(=O)c2ccc(O)cc2O)c(C)n1Cc1ccc(F)cc1 [GNF-9969] | 9.48 | 6.94 | – | EC50 [4, 5]: 1.01 µM |

The next lines start with results.

| EC50 ([2]; Table 10) [µM] | EC50 ([3]; Table 10) [µM] | EC50 ([2]; Table 9) [µM] | Compound | other results |
| --- | --- | --- | --- | --- |
| 7.55 | 7.04 | – | O=C(COc1ccc(C(=O)O)cc1)NC(c1ccccc1)c1ccc(Cl)cc1 (stereo not shown) [GNF-0248] | – |
| 8.39 | 6.2 | – | CCCOc1c(/C=C/C(=O)c2ccc(SCC(=O)O)c(OC)c2)cccc1OCC [GNF-1676] | EC50 [4, 5]: 1.29 µM |
| – | – | 0.007 | O=C(NCc1ccc(COCC(F)(F)F)cc1)c1cc(-c2ccccc2)[nH]n1 [GNF-3632] | PPAR subtype selectivity [2]: agonists of PPAR-δ and PPAR-α only; EC50 ([3]; Table 9): 5.48 µM |
| 6.82 | 2.33 | – | CCOc1cc(/C=C/C(=O)O)ccc1OCc1ccc(C(C)(C)C)cc1 [GNF-4516] | – |
| 8.24 | 0.825 | – | COc1ccc(C(=O)/C=C/c2c(C)nn(-c3ccccc3)c2Cl)cc1CSCC(=O)O [GNF-4909] | EC50 [4, 5]: 1.83 µM |
| 7.04 | > 10 | – | COCCCn1c(SCc2cccc(C(=O)O)c2)nc2sc3c(c2c1=O)CCCS3 [GNF-5154] | EC50 [4, 5]: > 10 µM |
| – | – | 0.013 | CCc1cc(C(c2cccc(OC)c2)N2CCN(CCO)CC2)c(NC(=O)c2ccccc2)s1 (stereo not shown) [GNF-5295] | PPAR subtype selectivity [2]: agonists of PPAR-δ and PPAR-γ only; EC50 ([3]; Table 9): > 10 µM; EC50 ([4]; Table 9, read-out: PPAR-γ EC50): 7.28 µM |
| 4.33 | 6.93 | – | COc1cc(/C=C2/S/C(=N/c3ccccc3)NC2=O)ccc1OCc1cccc(C(=O)O)c1 [GNF-5758] | EC50 [4, 5]: 9.73 µM |
| – | – | 0.008 | CCOc1cccc(/C=N/c2cccc(-c3csc(/N=C/c4cccc(OCC)c4O)n3)c2)c1O [GNF-6878] | – |
| 3.7 | 6.9 | – | O=C(OCC(=O)c1ccc(O)cc1O)c1ccc(COc2ccc3ccccc3c2)o1 [GNF-6928] | EC50 [4, 5]: 3.78 µM |
| – | – | 0.019 | COc1cc(CNCc2cc(C)on2)ccc1OCC(=O)Nc1ccc(Br)cc1 [GNF-6952] | PPAR subtype selectivity [2]: agonists of PPAR-δ and PPAR-α only; EC50 ([3]; Table 9): 7.56 µM |
| – | – | 0.011 | CCOC(=O)NC(=O)COC(=O)c1c2c(nc3ccccc13)/C(=C\c1ccc(OC)cc1)CC(C)C2 (stereo not shown) [GNF-8560] | PPAR subtype selectivity [2]: pan-agonist; EC50 ([3]; Table 9): 1.41 µM; EC50 ([4]; Table 9, read-out: PPAR-γ EC50): 3.53 µM |
